The values below come from patent publication EP0509470A2, “Therapeutical compositions having anti-HIV activity consisting of 2',3'-didesoxyadenosine and substances inhibiting adenosine deaminase” (REPLA CHEMICAL LTD., priority 1991, dated 1992).

Assay type in all cases: cell-based
For data set [1], the system named is HIV-1. Put plainly: Inhibition of infecting HIV production in C8166 cells (end point titration). The conditions noted are these: for EC90: read-out: ED90 (the source's name). As to the method:
(§1) The cellular lines utilized in this study were: H9, T lymphocytes, CD4+, permissive for the HIV replication but partially resistant to its cytopathic effect; • H9/IIIB, H9 lymphocytes chronically infected by HTLV/IIIB virus; • MT4 and C8166, T lymphocytes lines, CD4+ permissive for HIV replication. In C8166 the virus induces a cytopathic effect which results in the formation of syncytia easily visible at the optical microscope.
(§2) All the lymphoid lines were cultured in RPMI 1640 containing 10 % of non decomplemented fetal calf serum (FCS), penicillin 100U/mL and streptomycin 100 µg/mL and incubated at 37 °C in 5% CO₂.
(§3) HIV virus was obtained by H9/IIIB cells surnatant taken at the end of their exponential growth.
(§4) The titre of several stock preparations was comprised between 2 and 5 x 10⁵ Cell Culture Infection Dose 50 (CCID50)/mL.
(§5) For the evaluation of the anti-HIV activity the inhibition of infecting HIV production was determined as follows.
(§6) C8166 or MT4 cells sown at a density of 1 x 10⁶ cells/ml, were infected with a multiplicity of infection (m.o.i.) comprised between 0.05 and 0.02 CCID50/cell. After two hours of incubation at 37 °C and subsequent removal of the inoculum, the cells were washed three times and resuspended at a density of 1 x 10⁵ cells/ml. in the absence or in the presence of the compounds to be investigated.
(§7) After 4 days of incubation at 37 °C the presence of syncytia was evaluated at the optical microscope and the quantity of infecting HIV present in the surnatant of the cultures was determined by end point titration.
(§8) HIV titration was carried out in C8166 cells sown at a density of 1 x 10⁵ cells/mL/well, by the limit dilution method (dilution ratio 1:2, every dilution being sown in quadruplicate).
(§9) After four days of incubation, the syncytia presence was evaluated at the microscope and the viral titre was calculated by the Reed and Muench method.

In data set [2] the test system is HIV-1. Description: Inhibition of infecting HIV production in MT4 cells (end point titration). The conditions noted are these: for EC90: read-out: ED90 (the source's name); for enhancement of the anti-HIV-1 activity of ddAdo (10 µM): compound used at its MNTD together with ddAdo 10 µM, Fig. 1. As to the method: as §1, §2, §3, §4, §5, §6, §7, §8, §9
A short description of data set [3]: Cytotoxicity evaluation (cell number in Coulter after 96 hours). The note with it: human. The method, then: as §1, §2
(§10) For the cytotoxicity evaluation, the cells were resuspended in a culture medium at a density of 1 x 10⁵/mL, were incubated in the absence or in the presence of various concentration of the compounds to be studied and their number was determined in Coulter after 96 hours of incubation at 37 °C.

Data set [4] deals with C8166 cells. The data set is described as above. The conditions noted are these: C8166 cells; concentrations up to 500 µM. The method, then:
as §1, §2, §10

The test system of data set [5] is MT4 cells. Described as above. As to the method:
as §1, §2, §10

[6] abbreviates: C8166 cells, compound alone, Table 2.
The mark [7] stands for this setting: MT4 cells, compound alone, Table 2.
[8] abbreviates: MT4 cells, concentrations up to 500 µM.
Where [9] appears, read: ddAdo alone (EHNA absent), C8166, Table 3.
[10] abbreviates: ddAdo alone (Coformycin absent), MT4, Table 4.
The mark [11] stands for this setting: ddAdo alone (desoxycoformycin absent), MT4, Table 5.
[12] abbreviates: ddAdo with Coformycin 0.02 (unit not given), MT4.
[13] abbreviates: ddAdo with Coformycin 0.06 (unit not given), MT4.
[14] abbreviates: ddAdo with Coformycin 0.2 (unit not given), MT4.
Setting [15] is: ddAdo with Coformycin 0.5 (unit not given), MT4.
Where [16] appears, read: ddAdo with Coformycin 1.6 (unit not given), MT4.
Setting [17] is: ddAdo with Coformycin 5 (unit not given), MT4.
[18] abbreviates: ddAdo with Coformycin 15 (unit not given), MT4.
[19] abbreviates: ddAdo with Coformycin 45 (unit not given), MT4.
[20] abbreviates: ddAdo with desoxycoformycin 0.05 (unit not given), MT4.
[21] abbreviates: ddAdo with desoxycoformycin 0.5 (unit not given), MT4.
Setting [22] is: ddAdo with desoxycoformycin 5 (unit not given), MT4.
Setting [23] is: ddAdo with desoxycoformycin 50 (unit not given), MT4.

Read-outs that look alike come from different tables or passages of the source.

For the molecule `CCCCCC[C@H]([C@H](C)O)n1cnc2c(N)ncnc21` (relative stereo) [EHNA, 9-(erythro-2-hydroxy-3-nonyl) adenine], the EC90 was above 15 µM in data set [1] (setting [6]) and above 10 µM in data set [2] (setting [7]). In data set [1] (EHNA with ddAdo, C8166), the “lowest concentration enhancing ddAdo anti-HIV activity, relative to its MNTD” value stood at 250 times lower. In addition, the “enhancement of the anti-HIV-1 activity of ddAdo (10 µM)” value in data set [2] (MT4 cells) is given as “highest enhancing effect”. Besides, the figures for the 50% cytotoxic concentration (CC50) at 96 h in data set [3] (c8166 cells) and in data set [3] (mt4 cells) were 25 µM and 35 µM, respectively. For the same molecule, the MNTC at 96 h in data set [3] (c8166 cells, MNTD) came out at 15 µM; in data set [3] (mt4 cells, MNTD), 10 µM.
For `CCCCCC[C@H]([C@H](C)O)n1cnc2c(N)cccc21` (relative stereo) [1,3-dideaza-EHNA], the EC90 in data set [2] (setting [7]) was above 5 µM. Moreover, the CC50 (commonly the concentration at which the toxic effect on the cells reaches its halfway point) at 96 h in data set [3] (mt4 cells) is 15 µM. In addition, the MNTC at 96 h in data set [3] (mt4 cells, MNTD) came to 5 µM.
In the same order, the values of `CCCCCC[C@H]([C@H](C)O)n1ccc2c(N)ncnc21` (relative stereo) [7-deaza-EHNA] are above 5 µM, 50 µM and 5 µM.
For the molecule `CCCCCC[C@H]([C@H](C)O)n1cnc2c(N)nccc21` (relative stereo) [3-deaza-EHNA], the EC90 in data set [2] (setting [7]) is above 10 µM. Also, the “enhancement of the anti-HIV-1 activity of ddAdo (10 µM)” value in data set [2] (MT4 cells) is given as “highest enhancing effect”. The same molecule gave a 50% cytotoxic concentration (CC50) at 96 h in data set [3] (mt4 cells) of 30 µM. The same molecule showed an MNTC at 96 h in data set [3] (mt4 cells, MNTD) of 10 µM.
As to `OC[C@H]1O[C@@H](n2cnc3c2NC=NC[C@H]3O)C[C@@H]1O` [dCF, desoxycoformycin], the anti-HIV-1 activity entry was “without any anti-HIV-1 activity” in data set [1] (C8166 cells, concentrations up to 500 µM) and “without any anti-HIV-1 activity” in data set [2] (setting [8]). Further, the “lowest concentration enhancing ddAdo anti-HIV activity, relative to its MNTD” value in data set [2] (dCF with ddAdo, MT4) was “more than 10,000 times lower”. Further, the toxicity entry in data set [4] and in data set [5] (setting [8]) was “non toxic” throughout.
Turning to `OC[C@H]1O[C@@H](n2cnc3c2N=CNC[C@H]3O)[C@H](O)[C@@H]1O` [CF, coformycin], the EC90 in data set [1] (setting [6]) and in data set [2] (setting [7]) was above 250 µM in each case. In data set [2] (CF with ddAdo, MT4), the “lowest concentration enhancing ddAdo anti-HIV activity, relative to its MNTD” value is on record as “more than 12500 times lower”. Also, the CC50 at 96 h in data set [3] (c8166 cells) and in data set [3] (mt4 cells) was above 250 µM each time. Also, the MNTC at 96 h in data set [3] (c8166 cells, MNTD) was above 250 µM; in data set [3] (mt4 cells, MNTD) it was above 250 µM. Also, the MCC at 96 h in data set [3] (cell line not specified, read-out: cytotoxic concentration) is 250 µM.
As to `CCCCCC[C@H]([C@H](C)O)n1cnc2c(N)ccnc21` (relative stereo) [1-deaza-EHNA], in data set [2] (setting [7]), the EC90 turned out to be 20 µM. Besides, the midpoint of cytotoxicity in data set [3] (mt4 cells), the CC50 at 96 h, lay at 75 µM. Further, in data set [3] (mt4 cells, MNTD), the MNTC at 96 h came to 20 µM.
For the molecule `Nc1ncnc2c1ncn2[C@H]1CC[C@@H](CO)O1` [ddAdo, 2',3'-didesoxyadenosine], the EC90 worked out at 25 µM in data set [1] (setting [6]); 10.5 µM in data set [1] (ddAdo with EHNA 0.06 µM, C8166); 7.5 µM in data set [1] (ddAdo with EHNA 0.2 µM, C8166); 6.5 µM in data set [1] (ddAdo with EHNA 0.5 µM, C8166); 5 µM in data set [1] (ddAdo with EHNA 1.6 µM, C8166); 3.5 µM in data set [1] (ddAdo with EHNA 5 µM, C8166). Besides, the EC90 is 3 µM in data set [1] (ddAdo with EHNA 15 µM, C8166); 10 µM in data set [2] (setting [7]); 11 µM in data set [2] (setting [10]); 4.8 µM in data set [2] (setting [11]); 4 µM in data set [2] (ddAdo with Coformycin 0.02 (unit inferred), MT4); 3.6 µM in data set [2] (ddAdo with Coformycin 0.5 (unit inferred), MT4). The EC90 worked out at 2.5 µM in data set [2] (ddAdo with Coformycin 1.6 (unit inferred), MT4); 2 µM in data set [2] (ddAdo with Coformycin 5 (unit inferred), MT4); 1.5 µM in data set [2] (ddAdo with Coformycin 15 (unit inferred), MT4); 1 µM in data set [2] (ddAdo with Coformycin 45 (unit inferred), MT4); 1.3 µM in data set [2] (ddAdo with desoxycoformycin 0.5 (unit inferred), MT4); 1.1 µM in data set [2] (ddAdo with desoxycoformycin 5 (unit inferred), MT4). Moreover, in data set [2] (ddAdo with desoxycoformycin 50 (unit inferred), MT4), the EC90 is 0.9 µM. In addition, the ED99 in data set [1] (setting [9]) worked out at 39.0 µM; in data set [1] (ddAdo with EHNA 0.06 µM, C8166), 30.5 µM; in data set [1] (ddAdo with EHNA 0.2 µM, C8166) it was 18.0 µM; in data set [1] (ddAdo with EHNA 0.5 µM, C8166) it was 14.5 µM; in data set [1] (ddAdo with EHNA 1.6 µM, C8166) it was 11.5 µM; in data set [1] (ddAdo with EHNA 5 µM, C8166) it was 10.0 µM. The ED99 worked out at 7.5 µM in data set [1] (ddAdo with EHNA 15 µM, C8166); 19.0 µM in data set [2] (setting [10]); 14.3 µM in data set [2] (setting [11]); 7.6 µM in data set [2] (setting [12]); 7.1 µM in data set [2] (setting [13]); 5.0 µM in data set [2] (setting [14]). Moreover, the ED99 is 5.0 µM in data set [2] (setting [15]); 4.5 µM in data set [2] (setting [16]); 4.0 µM in data set [2] (setting [17]); 3.5 µM in data set [2] (setting [18]); 2.5 µM in data set [2] (setting [19]); 8.0 µM in data set [2] (setting [20]). The ED99 in data set [2] (setting [21]) is listed as 7.8 µM; in data set [2] (setting [22]), 6.2 µM; in data set [2] (setting [23]), 3.8 µM. Besides, the ED99.9 was determined as 61.0 µM in data set [1] (setting [9]); 52.0 µM in data set [1] (ddAdo with EHNA 0.06 µM, C8166); 42.5 µM in data set [1] (ddAdo with EHNA 0.2 µM, C8166); 34.5 µM in data set [1] (ddAdo with EHNA 0.5 µM, C8166); 25.5 µM in data set [1] (ddAdo with EHNA 1.6 µM, C8166); 23.5 µM in data set [1] (ddAdo with EHNA 5 µM, C8166). Moreover, the ED99.9 in data set [1] (ddAdo with EHNA 15 µM, C8166) was determined as 17.5 µM; in data set [2] (setting [10]) it was 32.0 µM; in data set [2] (setting [11]), 23.8 µM; in data set [2] (setting [12]) it was 13.7 µM; in data set [2] (setting [13]) it was 12.5 µM; in data set [2] (setting [14]) it was 8.0 µM. In addition, the ED99.9 is reported as 8.0 µM in data set [2] (setting [15]); 7.5 µM in data set [2] (setting [16]); 7.5 µM in data set [2] (setting [17]); 7.5 µM in data set [2] (setting [18]); 7.0 µM in data set [2] (setting [19]); 14.4 µM in data set [2] (setting [20]). Besides, the ED99.9 is 14.2 µM in data set [2] (setting [21]), 11.2 µM in data set [2] (setting [22]) and 6.7 µM in data set [2] (setting [23]). The molecule further had an MNTC in data set [5] (human, mt4 cells, 96 h) of 1 mM. Further, the CC50 at 96 h in data set [3] (c8166 cells) and in data set [3] (mt4 cells) was above 1000 µM throughout. The MNTC at 96 h in data set [3] (c8166 cells, MNTD) was above 1000 µM; in data set [3] (c8166 cells, maxima non cytotoxic doses (MNTD)) it was at least 1000 µM; in data set [3] (mt4 cells, MNTD) it was above 1000 µM; in data set [3] (mt4 cells, maxima non cytotoxic doses (MNTD)), at least 1000 µM; in data set [3] (mt4 cells, in association with 15 µM of EHNA, Fig. 2, read-out: MNTD of ddAdo), 60 µM; in data set [3] (mt4 cells, in association with 125 µM of CF, Fig. 3, read-out: MNTD of ddAdo), 60 µM.
